Measurements from patent US5837684A, “Peptides” (Nycomed Imaging AS, priority 1995, dated 1998).

How the values were obtained:
[1] = target: binary complex of TF/FVIIa (Homo sapiens, UniProt P00742); test: lipidated TF assay (chromogenic assay measuring the FXa generated by TF/FVIIa); format: biochemical; settings: for IC50: FVIIa 5 pM, FX 20 nM, TF 5 pM, CaCl2 5 mM, 15 min preincubation at ambient temperature, FXa substrate S2765, read-out: IC50: concentration of peptide inhibiting the rate of FX activation by 50%; for IC values (statement in words): lipidated TF assay, summary of Table 1
Chain of binary complex of TF/FVIIa (P00742 41-179 limits assumed): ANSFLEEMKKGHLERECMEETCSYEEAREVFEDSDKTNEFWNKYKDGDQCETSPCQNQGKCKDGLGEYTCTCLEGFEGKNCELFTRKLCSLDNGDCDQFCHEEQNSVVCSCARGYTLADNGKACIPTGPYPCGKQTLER
Chain of binary complex of TF/FVIIa (P00742 235-488 limits assumed): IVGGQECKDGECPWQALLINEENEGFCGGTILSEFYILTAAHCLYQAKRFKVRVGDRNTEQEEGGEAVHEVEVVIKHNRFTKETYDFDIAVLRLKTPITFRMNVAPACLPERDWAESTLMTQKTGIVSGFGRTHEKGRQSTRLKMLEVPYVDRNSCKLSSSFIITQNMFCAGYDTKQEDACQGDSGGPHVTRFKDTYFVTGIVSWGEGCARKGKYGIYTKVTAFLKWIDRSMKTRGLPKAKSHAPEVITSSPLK
Procedure: The inhibitory capacity of the peptides was measured by a so-called lipidated TF assay which is a chromogenic assay measuring the FXa generated by the binary complex of TF/FVIIa. FVIIa (5 pM final concentration) and FX (20 nM) were combined in the presence of different concentrations of peptide and incubated for 15 min at ambient temperature. TF (5 pM) and CaCl2 (5 mM) were added to initiate the reaction. Reactions were quenched with EDTA and the FXa activity was measured in an amidolytic assay, using the chromogenic FXa substrate S2765 (trade name). Data from these studies with this assay are shown in FIG. 1, and Table 1 hereinafter gives the corresponding IC values. Data are plotted as the percentage of the rate of FXa formation determined without peptide versus the concentration of the following peptides: hu#154-163 (SEQ. ID. NO. 1) (.circle-solid.), mu#158-167 (SEQ. ID. NO. 2) (x) and rb#152-161 (SEQ. ID. NO. 3) (Δ).

[2] = target: TF/FVIIa complex (FX activation) (Homo sapiens, UniProt P00742); test: Dixon plot analysis of the inhibitory mechanism of FXa formation; format: biochemical; settings: Dixon plots; three FX concentrations or three TF concentrations in excess of FVIIa
Chain of TF/FVIIa complex (FX activation) (P00742 41-179 limits assumed): as the sequence (P00742 41-179 limits assumed) above
Chain of TF/FVIIa complex (FX activation) (P00742 235-488 limits assumed): as the sequence (P00742 235-488 limits assumed) above
Procedure: Different concentrations of peptide were mixed with FVIIa and three different concentrations of FX and, after addition of TF, the rate of FXa formation was determined. In another experiment, different concentrations of peptide were mixed with FVIIa and three different concentrations of TF, in excess of FVIIa. After addition of FX, the rate of FXa formation was determined. Results were plotted according to Dixon, the inverse of the rate of FXa formation versus peptide concentration. Peptide mu#158-167 (SEQ. ID. No. 2), produced linear regression lines, which intercepted on the abscissa (different FX concentrations) or above the abscissa (different TF concentrations).

IC50 [1] [µM] | IC values (statement in words) [1] | Substance | inhibitory mechanism of FXa formation [2]
14 | very low μm range | H--Thr--Leu--Tyr--Tyr--Trp--Arg--Ala--Ser--Ser--Thr--OH (H-TLYYWRASST-OH) [rb#152-161, 10-mer of rabbit TF residues 152-161] | 
21 | very low μm range | H-IITYRKGSST-OH [mu#158-167, H--Ile--Ile--Thr--Tyr--Arg--Lys--Gly--Ser--Ser--Thr--OH] | competes with TF or FVIIa/TF complex for interaction with FX
100 |  | H-TLYYWKSSSS-OH [hu#154-163, H--Thr--Leu--Tyr--Tyr--Trp--Lys--Ser--Ser--Ser--Ser--OH] | 
